In test [1] the target is T1, proton pump (H+/K+-ATPase) (Sus scrofa, UniProt P19156).
T1 construct: used as an enzyme source of the in vitro enzyme reaction assay of proton pump; from tissue; host or cells: hog gastric fundic mucosa; membrane vesicles, lyophilized
Nature of the test: Inhibitory effects on proton pump (H+/K+-ATPase) activity. The conditions noted are these: hog gastric vesicles, K+ stimulated H+/K+-ATPase activity, Pi at 620 nm, 30 minutes at 37° C. It is filed as biochemical. Here is the method:
1-1. Preparation of gastric proton pump vesicles
The hog fundic regions containing parietal and peptic cells were scraped with slide-glass. The collected cells were suspended in 10 ml of 0.25M sucrose buffer and homogenized using a tight-fitting Teflon-glass homogenizer. The homogenate was centrifuged for 35 min at 8,000 rpm and the pellet was discarded. The supernatant was further centrifuged for 75 min at 25,000 rpm. The resulting pellets were re-suspended in the sucrose buffer (10 ml), and then the suspension was laid onto discontinuous density gradients consisting of 0.25M sucrose buffer and isolation medium containing 9% Ficoll (w/w). After being centrifuged for 3 hours and 15 minutes at 100,000×g, the material at the interface of sucrose buffer and Ficoll solution was collected and then centrifuged for 40 minutes at 100,000×g. The resulting pellets were re-suspended in 1 ml of 5 mM Hepes/Tris buffer (pH 6.1). This material was lyophilized and stored at −70° C. and used as an enzyme source of the in vitro enzyme reaction assay of proton pump.
1-2. Measurement of inhibitory effects on proton pump (H^+/K^+-ATPase) activity
The inhibitory effects of the compounds of the present invention against proton pump activity were evaluated in 96-well plate. In this assay, the K^+specific H^+/K^+-ATPase activity was calculated based on the difference between the activity of H^+/K^30 -ATPase activity with K^30 and without K^30 ion. In 96-well plate, 1% dimethylsulfoxide (DMSO) in buffer was added to negative and positive control groups and the diluted compounds of the present invention in buffer were added to test group. All assays were performed in 100μl reaction volume at room temperature, and the hog gastric vesicle was kept in ice before use. At the beginning of the reaction, 10μl of reaction buffer containing 1% DMSO was added to the negative and positive control groups and to reaction buffer each concentration of compounds in the test group. Then lyophilized vesicle in 5mM Pipes/Tris buffer (pH 6.1) was pre-incubated in the presence of various concentrations of test compounds. After a 5 minute incubation, negative and positive buffers were respectively added to the previous reaction mixture. As the substrate, ATP was added to the reaction buffer, and incubated for 30 minutes at 37° C. Enzymatic activity was stopped by the addition of colorimetric reagent (2X malachite green, 1X ammonium molybdate, X polyvinyl alcohol, 2X H2O) and the amount of mono phosphate (Pi) in the reaction was measured at 620nm using the micro plate reader (Genios Pro, TECAN). The difference between the Pi production with K^+and without K^+is taken as K^+stimulated H^+/K^+-ATPase activity. The IC50s of test compounds were calculated from each % inhibition value of compounds using the method of Litchfield-Wilcoxon (J. Pharmacol. Exp. Ther. (1949) 96, 99).

Test [2] deals with basal gastric acid secretion. Nature of the test: Inhibitory effects on basal gastric acid secretion in pylorus-ligated rats (Shay's rat model). It is filed as in vivo, Sprague Dawley (SD) rats. The conditions noted are these: oral, one hour before pylorus ligation, total acid output 5 hours after ligation, male SD rats. Here is the method: Test Example 2. Inhibitory effects on basal gastric acid secretion in pylorus-ligated rats. Inhibitory effects of the compounds of the present invention on basal gastric acid secretion were performed according to Shay's rat model (Shay, H., et al., 1945, gastroenterology, 5, 43-61). Male Sprague Dawley (SD) rats (200±10 g body weight) were divided into 3 groups (n=5) and fasted for 24 hours with free access to water. Control group was orally administered with 0.5% methylcellulose alone and the other groups were orally administered with test compounds suspended in 0.5% methyl-cellulose solution at doses of 1, 3 and 10 mg/kg/5 ml one hour before pylorus ligation. Under ether anesthesia, the abdomens of the rats were incised and then the pylorus was ligated. 5 hours after ligation, the animals were sacrificed, and the gastric contents were collected. The collected contents were centrifuged at 1,000×g for 10 minutes to obtain the gastric juice. Total acid output was measured by 0.01N NaOH volume (ueq/ml) for automatic titration of the gastric juice to pH 7.0 and the ED50s of test compounds were calculated using the Litchfield-Wilcoxon method. % inhibitory activity was calculated from the following equation and the results are shown in Table 2. %inhibitory activity of test compound=(total acid output of control group−total acid output of the group treated with test compounds)/total acid output of control group X 100

Another test has as its target T2, hog gastric H+/K+-ATPase (Sus scrofa, UniProt P19156).
T2 construct: from tissue; host or cells: hog gastric fundic mucosa; gastric vesicles/microsomes, lyophilized
Nature of the test: Reversible inhibition of hog gastric H+/K+-ATPase (Washout method). The format is biochemical. Here is the method: Gastric vesicles were prepared from hog fundic mucosa using the method of Saccomani et al. (Saccomani G, Stewart H B, Shqw D, Lewin M and Sachs G, Characterization of gastric mucosal membranes. IX. Fraction and purification of K-ATPase-containing vesicles by zonal centrifugation and free-flow electrophoresis techinque. Biochem. Biophy. Acta.(BBA)—Biomembranes 465, 311-330, 1977.). This material was lyophilized and stored at −70° C. The protein content of gastric vesicles was determined by the Bradford method using bovine serum albumin as a standard (Bradford M M, A rapid and sensitive method for the quantitation of microgram quantities of protein utilizing the principle of protein-dye binding. Anal Biochem. 72, 248-254, 1976).
Activity of H^+/K^+-ATPase in hog microsome (lyophilized vesicle) was measured by the inorganic phosphate released from ATP using an one-step colorimetric detection method at the concentration at which the test compounds have 50% inhibition of the proton pump (Chan K M, Delfert D, and Junger K D, A direct colorimetric assay for Ca^2+-stimulated ATPase activity. Anal Biochem, 157, 375-380, 1986). […]

The source of these data is US7541366B2, “Pyrrolo[3,2-c]pyridine derivatives and processes for the preparation thereof” (YUHAN Corporation, priority 2004, dated 2009).

For orientation: IC50 means the concentration that gives 50% inhibition. As a reminder, the ED50 is the dose that gives a 50% effect, or the effect in half of the subjects.

T1 sequence (P19156 whole entry): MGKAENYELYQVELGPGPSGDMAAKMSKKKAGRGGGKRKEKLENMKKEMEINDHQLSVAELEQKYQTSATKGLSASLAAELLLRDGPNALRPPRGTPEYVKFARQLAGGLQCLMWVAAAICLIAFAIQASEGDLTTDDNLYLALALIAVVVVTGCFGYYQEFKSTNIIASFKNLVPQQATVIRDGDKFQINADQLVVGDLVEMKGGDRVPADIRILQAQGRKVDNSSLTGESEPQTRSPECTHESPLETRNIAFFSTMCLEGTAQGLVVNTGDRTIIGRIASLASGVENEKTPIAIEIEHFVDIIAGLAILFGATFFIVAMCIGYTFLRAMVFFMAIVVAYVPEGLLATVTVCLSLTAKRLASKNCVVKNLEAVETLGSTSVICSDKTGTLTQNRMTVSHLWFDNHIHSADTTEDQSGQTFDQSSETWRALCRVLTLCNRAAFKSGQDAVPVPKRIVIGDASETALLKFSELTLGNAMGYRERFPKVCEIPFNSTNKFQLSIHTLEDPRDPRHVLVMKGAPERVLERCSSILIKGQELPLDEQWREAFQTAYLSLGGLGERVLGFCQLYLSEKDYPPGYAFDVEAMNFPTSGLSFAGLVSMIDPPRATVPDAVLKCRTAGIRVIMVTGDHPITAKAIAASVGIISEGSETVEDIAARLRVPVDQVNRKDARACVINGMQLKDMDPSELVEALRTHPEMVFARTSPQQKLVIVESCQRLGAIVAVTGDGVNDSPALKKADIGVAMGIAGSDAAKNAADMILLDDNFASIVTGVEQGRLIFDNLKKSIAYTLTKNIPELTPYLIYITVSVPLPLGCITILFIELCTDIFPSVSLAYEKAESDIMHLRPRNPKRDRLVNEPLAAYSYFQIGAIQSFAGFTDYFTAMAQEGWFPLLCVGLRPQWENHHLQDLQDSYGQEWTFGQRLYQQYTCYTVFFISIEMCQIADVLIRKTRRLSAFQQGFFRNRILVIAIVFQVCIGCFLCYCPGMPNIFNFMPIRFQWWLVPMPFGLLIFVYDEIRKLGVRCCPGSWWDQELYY
T1 sequence (P18434 whole entry partner): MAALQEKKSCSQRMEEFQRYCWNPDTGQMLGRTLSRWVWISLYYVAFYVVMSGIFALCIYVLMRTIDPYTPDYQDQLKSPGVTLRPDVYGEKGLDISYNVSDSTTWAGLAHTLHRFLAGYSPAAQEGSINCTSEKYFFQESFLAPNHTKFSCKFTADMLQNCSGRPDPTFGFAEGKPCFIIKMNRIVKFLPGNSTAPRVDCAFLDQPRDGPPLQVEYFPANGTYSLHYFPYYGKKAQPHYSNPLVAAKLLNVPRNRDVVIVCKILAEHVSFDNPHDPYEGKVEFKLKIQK
T2 sequence (P19156 whole entry): as the sequence (P19156 whole entry) above
T2 sequence (P18434 whole entry partner): as the sequence (P18434 whole entry partner) above

In turn, `CCCn1c(C)c(C)c2cncc(OCc3ccc(F)cc3)c21.Cl` [Example 16, 7-(4-fluorobenzyloxy)-2,3-dimethyl-1-propyl-1H-pyrrolo[3,2-c]pyridine hydrochloride] displayed an IC50 in test [1] of 0.01 µM. Moreover, the ED50 in test [2] came out at 1.8 mg/kg.

In test [1], `CCCn1c(C)c(C)c2cncc(N3CCc4ccccc4C3)c21.Cl` [Example 38, 2-(2,3-dimethyl-1-propyl-1H-pyrrolo[3,2-c]pyridin-7-yl)-1,2,3,4-tetrahydroisoquinoline hydrochloride] gave an IC50 of 0.19 µM. Also, the “inhibition of H+/K+-ATPase activity after washout” value at hog gastric H+/K+-ATPase (after washout, compared with non-treated group) is listed as “did not inhibit”. Further, the “inhibition of H+/K+-ATPase activity before washout” value against hog gastric H+/K+-ATPase (before washout, test compound at the concentration at which it has 50% inhibition) was determined as 50%.

In turn, `Cc1c(C)n(Cc2ccccc2)c2c(OCc3ccc(F)cc3)cncc12.Cl` [Example 12, 1-benzyl-7-(4-fluorobenzyloxy)-2,3-dimethyl-1H-pyrrolo[3,2-c]pyridine hydrochloride] showed an IC50 in test [1] of 0.01 µM. In test [2], this compound came in with an ED50 of 3.3 mg/kg.

In the case of `COCCn1c(C)c(C)c2cncc(OCc3ccc(F)cc3)c21.Cl` [Example 17, 7-(4-fluorobenzyloxy)-1-(2-methoxyethyl)-2,3-dimethyl-1H-pyrrolo[3,2-c]pyridine hydrochloride], the half-inhibitory concentration (IC50) in test [1] came to 0.01 µM. This compound displayed an ED50 in test [2] of 3.3 mg/kg.

The compound `C#CCn1c(C)c(C)c2cncc(OCc3ccc(F)cc3)c21.Cl` [Example 2, 7-(4-fluorobenzyloxy)-2,3-dimethyl-1-(prop-2-ynyl)-1H-pyrrolo[3,2-c]pyridine hydrochloride] had an IC50 in test [1] of 0.01 µM. The same compound registered an ED50 in test [2] of 1.1 mg/kg.
